Source: patent US8552018B2, “Substituted tricyclic compounds as protein kinase inhibitors” (Arizona Board of Regents on behalf of the University of …, priority 2003, dated 2013)
Like-named read-outs stand apart in the source and are kept apart here.

Experiments:
aurora-2 kinase [1] = molecular target: T1, aurora-2 kinase (Homo sapiens, UniProt O14965); test: Aurora-2 kinase inhibition assay (Kinase-Glo); format: biochemical; settings: for degree of inhibition of aurora-2 kinase activity (rank among tested compounds): 20 μM, FIG. 10; for IC50: aurora-2 kinase, FIG. 11
T1 construct: purchased Imgenex, San Diego, Calif; host or cells: sf9 cells
T1 sequence (O14965 1-403): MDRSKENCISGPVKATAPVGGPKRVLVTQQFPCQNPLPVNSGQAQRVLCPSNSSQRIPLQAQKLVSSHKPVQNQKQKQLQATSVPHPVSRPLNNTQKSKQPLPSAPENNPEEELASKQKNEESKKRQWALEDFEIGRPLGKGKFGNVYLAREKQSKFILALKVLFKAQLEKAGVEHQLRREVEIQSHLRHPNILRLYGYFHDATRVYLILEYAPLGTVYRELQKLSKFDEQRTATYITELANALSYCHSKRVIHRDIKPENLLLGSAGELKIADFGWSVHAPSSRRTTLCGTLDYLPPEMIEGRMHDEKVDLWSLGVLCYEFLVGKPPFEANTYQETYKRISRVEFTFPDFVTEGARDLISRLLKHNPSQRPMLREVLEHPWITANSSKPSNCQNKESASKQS
Protocol: In this assay kinase activity is determined by quantifying the amount of ATP remaining in solution following the kinase reaction by measuring the light units (LU) produced by luciferase using a luminometer. Percent inhibition was determined for individual compounds by comparing luminometer readings of drug-treated reactions to controls containing no drug (DMSO control) and no Aurora-2 enzyme (ATP control) in the following equation: […]
In a 50 μl reaction, recombinant aurora-2 kinase produced in sf9 cells (Imgenex, San Diego, Calif.) was incubated at 30° C. for two hours with 62.5 μM Kemptide (Calbiochem, San Diego, Calif.), 3 μM ATP (Invitrogen, Carlsbad, Calif.) and kinase reaction buffer (40 mM Tris-HCl, 10 mM MgCl2 and 0.1 μg/μl bovine serum albumin (BSA)). This reaction was carried out in the presence of drug substances, which had been previously diluted to desired concentrations in DMSO. After incubation, 50 μl of Kinase-Glo® (Promega, Inc., Madison, Wis.) solution was added to each reaction mixture and allowed to equilibrate for 10 minutes at room temperature. Kinase-Glo solution contains luciferase enzyme and luciferin, which react with ATP to produce light. Kinase activity is determined by quantifying the amount of ATP remaining in solution following the kinase reaction by measuring the light units (LU) produced by luciferase using a luminometer (PerkinElmer, Boston, Mass.).

mutant forms of PDGFR = test: Activity against mutant PDGFR (stated); format: biochemical
[2] = system: Rad51 in SF-767 cancer cells; test: Western blotting for Rad51 after IR; format: cell-based; settings: SF-767 cells pretreated with MP470
LNCaP prostate cells = test: MTT assay; format: cell-based; settings: Homo sapiens, read-out: IC50 (cell survival reduced to 50% of vehicle-treated controls), FIG. 30
Protocol: An MTT assay was performed to determine the number of viable cells in each well for each concentration of compound, and also for a set of vehicle controls (DMSO).

[3] = system: Akt phosphorylation in NIH 3T3 cells; test: Immunoblot for phospho-Akt (S473); format: cell-based
Protocol: (§1) In order to evaluate these effects at the cellular level, immunoblot analysis was performed on lysates from cells treated with MP470, with or without the addition of the EGFR inhibitor Tarceva®. Lysates were assayed for general tyrosine kinase activity, as well as the specific phosphorylation of c-Met and Akt. Briefly, NIH 3T3 cells were pretreated with drugs as indicated for 4 hours, then treated with pervanadate for a further 30 minutes. Immunoblot detection was carried out with antibodies for phosphotyrosine, phospho-Met and phospho-Akt (S473), as well as total c-Met and Akt. Beta-actin was used as a loading control.

c-met = c-met (Homo sapiens, UniProt P08581); test: Activity against c-met (stated); format: biochemical
[4] = system: general tyrosine phosphorylation in NIH 3T3 cells; test: Immunoblot for phosphotyrosine; format: cell-based
Protocol: as §1, with “MP-470 (Compound III-1-3) has inhibitory effects on a number of receptor tyrosine kinases. In” for “In”

[5] = system: SF-767 glioblastoma multiformes cells; test: MTS cell death assay; format: cell-based
Protocol: To evaluate the ability of MP470 to enhance clinical therapy we used MP470 in combination with ionizing radiation on culture cancer cells. SF-767 glioblastoma multiformes cells were treated with 1 μM MP470, 800c Gy IR, or a combination of both.

[6] = system: c-Met autophosphorylation in NIH 3T3 cells; test: Immunoblot for phospho-Met; format: cell-based
Protocol: as §1, with “MP-470 (Compound III-1-3) has inhibitory effects on a number of receptor tyrosine kinases. In” for “In”

aurora-2 kinase [7] = molecular target: T1, aurora-2 kinase; test: Protein kinase inhibitory activity (Example 33, Kinase-Glo); format: biochemical; settings: FIG. 27
Protocol: Percent activity was determined for individual compounds by comparing luminometer readings of drug-treated reactions to controls containing no drug (RLUNo Inhib) and no Aurora-2 enzyme (RLUNo Kinase) in the following equation:
After incubation, 50 μl of Kinase-Glo® (Promega, Inc., Madison, Wis.) solution was added to each reaction mixture and allowed to equilibrate for 10 minutes at room temperature. Kinase-Glo solution contains luciferase enzyme and luciferin, which react with ATP to produce light. Kinase activity is determined by quantifying the amount of ATP remaining in solution following the kinase reaction by measuring the relative light units (RLU) produced by luciferase using a luminometer (Thermo Electron Corporation, Vantaa, Finland).

Aurora-A = Aurora-A (Homo sapiens, UniProt O14965); settings: 0.1 μM ATP, 30 μM Kemptide
Protocol: [drawing 74] enzyme assays were performed using the Kinase-Glo™ Luminescent Kinase Assay from Promega Corporation (Madison, Wis.). The following conditions were used: [table] Enzymatic reactions were allowed to progress for 2 hours at 30° C., then assayed for kinase activity according to manufacturer protocol.

[8] = NIH 3T3, MP-470 in combination with Tarceva®

Sequence of c-met (P08581 25-1390): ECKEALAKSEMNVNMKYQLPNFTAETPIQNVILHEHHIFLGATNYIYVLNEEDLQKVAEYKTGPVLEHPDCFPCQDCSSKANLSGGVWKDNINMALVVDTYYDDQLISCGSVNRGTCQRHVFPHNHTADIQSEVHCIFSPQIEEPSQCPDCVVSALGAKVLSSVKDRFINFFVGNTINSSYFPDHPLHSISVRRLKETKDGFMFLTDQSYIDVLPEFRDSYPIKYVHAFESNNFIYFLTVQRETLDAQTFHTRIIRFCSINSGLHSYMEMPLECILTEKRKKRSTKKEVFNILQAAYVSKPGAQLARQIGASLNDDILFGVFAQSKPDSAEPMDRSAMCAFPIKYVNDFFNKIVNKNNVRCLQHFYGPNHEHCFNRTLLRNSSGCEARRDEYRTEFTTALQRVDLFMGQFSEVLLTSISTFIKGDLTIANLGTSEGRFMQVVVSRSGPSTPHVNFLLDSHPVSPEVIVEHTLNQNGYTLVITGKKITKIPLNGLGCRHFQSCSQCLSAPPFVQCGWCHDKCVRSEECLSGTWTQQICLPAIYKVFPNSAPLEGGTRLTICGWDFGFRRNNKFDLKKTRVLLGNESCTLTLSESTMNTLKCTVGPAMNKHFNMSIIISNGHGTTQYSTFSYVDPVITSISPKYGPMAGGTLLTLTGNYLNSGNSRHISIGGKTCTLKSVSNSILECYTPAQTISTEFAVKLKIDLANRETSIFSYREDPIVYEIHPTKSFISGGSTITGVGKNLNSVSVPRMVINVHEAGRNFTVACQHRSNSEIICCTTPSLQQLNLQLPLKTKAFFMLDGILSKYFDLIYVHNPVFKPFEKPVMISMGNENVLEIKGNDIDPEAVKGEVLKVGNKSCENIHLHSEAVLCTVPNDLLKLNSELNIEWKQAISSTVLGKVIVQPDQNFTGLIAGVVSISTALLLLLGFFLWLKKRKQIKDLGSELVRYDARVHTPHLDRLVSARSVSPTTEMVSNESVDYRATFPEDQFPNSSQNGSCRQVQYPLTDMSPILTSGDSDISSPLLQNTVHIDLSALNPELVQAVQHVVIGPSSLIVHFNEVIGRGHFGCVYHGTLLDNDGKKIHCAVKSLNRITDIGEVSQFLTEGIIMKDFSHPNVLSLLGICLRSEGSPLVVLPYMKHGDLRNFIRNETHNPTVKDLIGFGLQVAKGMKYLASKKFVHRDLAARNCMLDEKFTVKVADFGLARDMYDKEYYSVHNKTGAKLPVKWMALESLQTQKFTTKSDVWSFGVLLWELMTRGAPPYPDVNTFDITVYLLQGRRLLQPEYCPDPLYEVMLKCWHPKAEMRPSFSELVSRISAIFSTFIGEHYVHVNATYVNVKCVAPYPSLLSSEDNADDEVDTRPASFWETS

Row | Compound | aurora-2 kinase inhibitory activity (in words) (aurora-2 kinase [1]) | degree of inhibition of aurora-2 kinase activity (rank among tested compounds) (aurora-2 kinase [1]) | IC50 (aurora-2 kinase [1]) | activity against mutant forms of PDGFR (in words) (mutant forms of PDGFR) | Rad51 protein levels after exposure to IR [2] | IC50 (LNCaP prostate cells) | phosphorylation of Akt ([3]; NIH 3T3, 4 hours, agent alone) | phosphorylation of Akt [3, 8] | activity against c-met (in words) (c-met) | general tyrosine phosphorylation [4] | cell death (MTS) ([5]; SF-767, 1 μM MP470 alone) | increase of cell death over either agent alone ([5]; SF-767, 1 μM MP470 in combination with 800c Gy IR) | activating autophosphorylation of c-Met ([6]; NIH 3T3, 4 hours, agent alone) | activating autophosphorylation of c-Met [6, 8] | aurora-2 kinase inhibitory activity (in words) (aurora-2 kinase [1]; listed as II-2-6) | kinase inhibitory activity (in words) (aurora-2 kinase [7]) | IC50 (Aurora-A)
1 | COc1cc2ncnc(N3CCN(C(=S)Nc4ccc(S(=O)(=O)Nc5ncccn5)cc4)CC3)c2cc1OC [HPK16, 4-(6,7-Dimethoxy-quinazolin-4-yl)-piperazine-1-carbothioic acid [4-(pyrimidin-2-ylsulfamoly)-phenyl]-amide] | particularly effective inhibitors | second highest inhibition | 4700 nM | – | – | – | – | – | – | – | – | – | – | – | – | – | –
2 | S=C(NCc1ccc2c(c1)OCO2)N1CCN(c2ncnc3c2oc2ccccc23)CC1 [HPK56, 4-Benzo[4,5]furo[3,2-d]pyrimidin-4-yl-piperazine-1-carbothioic acid (benzo[1,3]dioxol-5-ylmethyl)-amide] | – | – | – | low nanomolar | remained low and near control level | ~5000 nM | reduced | reduced | low micromolar | reduced | induced cell death | more than 2 fold | reduced | reduced | – | – | –
3 | COc1cc2[nH]c3ncnc(N4CCN(C(=S)Nc5ccc(S(=O)(=O)Nc6ncccn6)cc5)CC4)c3c2cc1OC [HPK62, 4-(6,7-Dimethoxy-9H-1,3,9-triaza-fluoren-4-yl)-piperazine-1-carbothioic acid [4-(pyrimidin-2-ylsulfamoyl)-phenyl]-amide] | particularly effective inhibitors | highest inhibition | 900 nM | – | – | – | – | – | – | – | – | – | – | – | low nanomolar | highest activity | 900 nM
